PMC11378298 (ACS Chemical Neuroscience, 2024)
Several values for one entry are separate records, joined by “and”; a condition that tells them apart may be missing. Equal values may be shown once.

Assays:
[1] = Cytotoxicity in BV-2 cells (PrestoBlue); settings: mouse, BV-2 microglial cells
Experimental: The compounds were tested at 5 concentrations (0.1, 1, 10, 50, and 100 μM).
Mouse microglial cells (BV-2) were a generous gift from Professor Bozena Kaminska-Kaczmarek of the Laboratory of Molecular Neurobiology, Neurobiology Center, Nencki Institute of Experimental Biology, Polish Academy of Sciences, Warsaw, Poland. Cells were cultured in Dulbecco’s modified Eagle’s Medium-high glucose (DMEM, Glutamax Thermo Fisher) supplemented with 10% heat-inactivated fetal bovine serum (Thermo Fisher), 100 IU/mL penicillin (Merck) and 100 μg/mL streptomycin (Merck). Cells were cultured in flasks (area 175 cm^2, Nunc), and incubated at 37 °C, 5% CO2. To evaluate the level of NO, IL-6, and TNF-α and the effectiveness of the compounds tested, BV-2 microglia cells were cultured in a 96-well culture plate (5 × 10^4 cells per well, Falcon). For the measurement of cell viability and cell membrane damage, cells were placed in a 96-well culture plate (2 × 10^4 cells per well, Falcon). Before the tests, cells were grown for 24 h in the incubator (37 °C, 5% CO2).
Cell viability was evaluated using the PrestoBlue reagent (ThermoFisher), according to the manufacturer’s procedures.[87] Following 24 h of incubation with the tested molecule, PrestoBlue reagent was added to a microplate well in an amount equal to one-tenth of the remaining medium volume. The resulting mixture was incubated for 15 min at 37 °C, and the fluorescence intensity (EX 530 nm; EM 580 nm) was measured in the plate reader POLARstar Omega, (BMG Labtech).

[2] = human liver microsomes; for % of the compound remaining after 2 h of incubation: 2 h (120 min), 37 °C
Experimental: The primary site of drug metabolism in humans is the liver. Therefore, we used human liver microsomes (HLM) to determine the metabolic stability of selected compounds (Table 3). The compounds were incubated with HLMs for 2 h, and the resulting mixtures were analyzed with UPLC-MS (for details including the UPLC-MS spectra, see Table S10 and Figures S17–S22 in the SI).
All protocols used for the evaluation of drug-like properties (ADME-To parameters) were described in our previous works.[58],[89] Precoated PAMPA Plate System Gentest was obtained from Corning, (Tewksbury, MA, USA). The metabolic stability assay was performed on human liver microsomes (HLMs, Sigma-Aldrich, St. Louis, MO, USA). The assays with microsomes were supported by MetaSite 6.0.1 software (Molecular Discovery Ltd. Hertfordshire, UK). To predict potential drug–drug interactions (DDIs) the influence on CYP3A4, CYP2D6, and CYP2C9 were carried with use of respective P450-Glo kit (Promega, Madison, WI, USA). The luminescence signal and absorbance were measured by using a microplate reader EnSpire PerkinElmer (Waltham, MA, USA). The LC/MS/MS analyses used in PAMPA and the assays with use of HLMs were obtained on Waters ACQUITY TQD system (Waters, Milford, CT, USA). […] Statistical significances and IC50 values were calculated by Graph Pad Prism 9 software.
Table S9. Differences in binding energies given for methods in gas and water environment.
Method gas [kcal/mol] water [kcal/mol]
Metabolic stability of compounds 11 and 36 in human liver microsomes (HLMs)
Table S10. The molecular masses and metabolic pathways of compounds 11 and 36 determined using human liver microsomes.
Substrate mass % mass of the Metabolic pathway*
(m/z) remaining metabolite
*most probable metabolic pathways were estimated by MS analyses supported by in silico prediction using MetaSite 6.0.1 and ADMET Predictor tools
Figure S17. The MetaSite 6.0.1. software prediction of the most probabl e sites of compounds’ 11 and 36 metabolism. The darker the red color - the higher the probability of being involved […]

BV-2 cell line = experiment: TNF-α release in LPS-treated BV-2 cells (LANCE Ultra TR-FRET); format: cell-based, mouse; settings: compound 10 μM; LPS 100 ng/mL
Experimental: Cell viability was determined by Presto Blue assay after 24 h. (B) Effect of compounds 11, 34, and 36 (0.1, 1, 10 μM) on NO-release (%) in LPS-treated (100 ng/mL) BV-2 cell line. NO-release was measured using a fluorometric assay with 2,3-diaminonaphthalene (DAN). (C, D) Effects of compounds 11 and 36 (0.1, 1, 10 μM) on IL-6 and TNF-α release in LPS-treated (100 ng/mL) BV-2 cell line. The IL-6 and TNF-α levels were measured using LANCE Ultra TR-FRET Detection Kit (PerkinElmer). Statistical analysis was performed using GraphPad Prism 9.0.0. All values are expressed as mean with SD. Differences among groups were evaluated by one-way ANOVA followed by posthoc analysis (Dunnett’s multiple comparison tests) vs. control group (LPS on BV-2 cells and okadaic acid on HT-22 cells) and were considered statistically significant if p < 0.05 (*p < 0.05, **p < 0.01, ***p < 0.001, and ****p < 0.0001). […]
The IL-6 and TNF-α levels in the culture supernatants were measured using LANCE Ultra TR-FRET Detection Kit (PerkinElmer), according to manufacturer protocol. […] After 1 h of incubation of IL-6 and 3h for incubation of TNF-α in the dark, at 22 °C, the plates were read with an EnVision plate reader (PerkinElmer) with the excitation wavelength at 320 nm, the donor emission at 615 nm, and the acceptor emission at 660 nm. […]

[3] = PAMPA; for permeability classification: versus caffeine

Compound | IC50 at 24 h [1] [µM] | % of the compound remaining after 2 h of incubation [2] | TNF-α release (BV-2 cell line) | permeability classification [3] | % of the compound metabolized ([2]; 2 h) [%] | Pe ([3]; unit not given)
NC(=O)N1CC=C(c2ccnc(NC(=O)C3CC3)c2)C1 [Compound 11, 3-(2-(Cyclopropanecarboxamido)pyridin-4-yl)-2,5-dihydro-1H-pyrrole-1-carboxamide] | 23.4 ± 1.7 | 100% | significantly reducing the release | might not penetrate through the biological membranes |  | 
O=C(Nc1cc(-c2ccc(-c3ncon3)s2)ccn1)C1CC1 [Compound 36, N-(4-(5-(1,2,4-Oxadiazol-3-yl)thiophen-2-yl)pyridin-2-yl)cyclopropanecarboxamide] | 89.3 ± 4.9 | 88.61% and 88.6% | significantly reducing the release | well permeable | 11 | 9.4
